Laboratory results reported in patent publication US20140038989A1, “TETRAHYDROPYRAZOLO [1,5-A] PYRIMIDINE AS ANTI-TUBERCULOSIS COMPOUNDS” (Glaxo Group Limited, priority 2011, published 2014).
In brackets after ≈: the same amount, converted by molar mass.

Test system: Mycobacterium tuberculosis H37Rv
Experiment: Mycobacterium tuberculosis H37Rv Inhibition Assay (Whole Cell Assay)
Assay type: cell-based
Details: ATCC 25618 / H37Rv, H37Rv strain (ATCC25618), Middlebrook 7H9, six days at 37° C., resazurin fluorescence after 48 hours

SMILES	MIC [µM]
COc1ccc(CNC(=O)c2cnn3c2NC(c2ccc(C)cc2)CC3C(F)(F)F)cc1 (centres unmarked) [Example 39, N-(4-methoxybenzyl)-5-(p-tolyl)-7-(trifluoromethyl)-4,5,6,7-tetrahydropyrazolo[1,5-a]pyrimidine-3-carboxamide]	≤ 1
CCc1ccc(C2CC(C(F)(F)F)n3ncc(C(=O)NCc4cccs4)c3N2)cc1 (centres unmarked) [Example 40, 5-(4-ethylphenyl)-N-(thiophen-2-ylmethyl)-7-(trifluoromethyl)-4,5,6,7-tetrahydropyrazolo[1,5-a]pyrimidine-3-carboxamide]	≤ 1
COc1ccc(C2CC(C(F)(F)F)n3ncc(C(=O)NCc4ccc5c(c4)OCO5)c3N2)cc1 (centres unmarked) [Example 41, N-(benzo[d][1,3]dioxol-5-ylmethyl)-5-(4-methoxyphenyl)-7-(trifluoromethyl)-4,5,6,7-tetrahydropyrazolo[1,5-a]pyrimidine-3-carboxamide]	≤ 1
Cc1ccc(CNC(=O)c2cnn3c2NC(c2ccc(C)cc2)CC3C(F)F)cc1 (centres unmarked) [Example 51, 7-(difluoromethyl)-N-(4-methylbenzyl)-5-(p-tolyl)-4,5,6,7-tetrahydropyrazolo[1,5-a]pyrimidine-3-carboxamide]	> 2
Cc1ccc(C2CC(C(F)(F)F)n3ncc(C(=O)NCc4ccccc4Cl)c3N2)cc1 (centres unmarked) [Example 52, N-(2-chlorobenzyl)-5-(p-tolyl)-7-(trifluoromethyl)-4,5,6,7-tetrahydropyrazolo[1,5-a]pyrimidine-3-carboxamide]	> 2
COc1ccc(C2CC(C(F)(F)F)n3ncc(C(=O)NCc4ccccc4)c3N2)cc1 (centres unmarked) [Example 53, N-benzyl-5-(4-methoxyphenyl)-7-(trifluoromethyl)-4,5,6,7-tetrahydropyrazolo[1,5-a]pyrimidine-3-carboxamide]	> 2
COc1ccc(CNC(=O)c2cnn3c2NC(c2ccc(OC)cc2)CC3C(F)(F)F)cc1 (centres unmarked) [Example 54, N-(4-methoxybenzyl)-5-(4-methoxyphenyl)-7-(trifluoromethyl)-4,5,6,7-tetrahydropyrazolo[1,5-a]pyrimidine-3-carboxamide]	> 2
Cc1ccc(C2CC(C(F)F)n3ncc(C(=O)NCc4ccccc4C(F)(F)F)c3N2)cc1 (centres unmarked) [Example 55, 7-(difluoromethyl)-5-(p-tolyl)-N-(2-(trifluoromethyl)benzyl)-4,5,6,7-tetrahydropyrazolo[1,5-a]pyrimidine-3-carboxamide]	> 2
CCc1ccc([C@H]2C[C@@H](C(F)(F)F)n3ncc(C(=O)NCc4ncc(F)cc4F)c3N2)cc1 [Example 101, (5R,7S)—N-((3,5-difluoropyridin-2-yl)methyl)-5-(4-ethylphenyl)-7-(trifluoromethyl)-4,5,6,7-tetrahydropyrazolo[1,5-a]pyrimidine-3-carboxamide]	≤ 1
CCc1ccc([C@H]2C[C@@H](C(F)(F)F)n3ncc(C(=O)NCc4ccc(OC)nc4)c3N2)cc1 [Example 102, (5R,7S)-5-(4-ethylphenyl)-N-((6-methoxypyridin-3-yl)methyl)-7-(trifluoromethyl)-4,5,6,7-tetrahydropyrazolo[1,5-a]pyrimidine-3-carboxamide]	≤ 1
CCc1ccc([C@H]2C[C@@H](C(F)(F)F)n3ncc(C(=O)NCc4ccc(Cl)nc4)c3N2)cc1 [Example 103, (5R,7S)—N-((6-chloropyridin-3-yl)methyl)-5-(4-ethylphenyl)-7-(trifluoromethyl)-4,5,6,7-tetrahydropyrazolo[1,5-a]pyrimidine-3-carboxamide]	≤ 1
CCc1ccc([C@H]2C[C@@H](C(F)(F)F)n3ncc(C(=O)NCc4cnc(OC)c(F)c4)c3N2)cc1 [Example 104, (5R,7S)-5-(4-ethylphenyl)-N-((5-fluoro-6-methoxypyridin-3-yl)methyl)-7-(trifluoromethyl)-4,5,6,7-tetrahydropyrazolo[1,5-a]pyrimidine-3-carboxamide]	≤ 1
CCc1ccc([C@H]2C[C@@H](C(F)(F)F)n3ncc(C(=O)NCc4ccc(F)c(C)n4)c3N2)cc1 [Example 105, (5R,7S)-5-(4-ethylphenyl)-N-((5-fluoro-6-methylpyridin-2-yl)methyl)-7-(trifluoromethyl)-4,5,6,7-tetrahydropyrazolo[1,5-a]pyrimidine-3-carboxamide]	≤ 1
CCc1ccc([C@H]2C[C@@H](C(F)(F)F)n3ncc(C(=O)NCc4ncc(C)cc4F)c3N2)cc1 [Example 106, (5R,7S)-5-(4-ethylphenyl)-N-((3-fluoro-5-methylpyridin-2-yl)methyl)-7-(trifluoromethyl)-4,5,6,7-tetrahydropyrazolo[1,5-a]pyrimidine-3-carboxamide]	1 to 2 (≈ 0.461 to 0.923 µg/mL)
